Here are results for ten molecules from patent publication US11261175B2 (priority 2017, dated 2022).

Each structure is given as a SMILES string.

What all share (format): cell-based
For assay [1], the system named is JFH5a-Rluc-ad34 virus (HCV GT-2a). The assay can be described thus: Anti-HCV activity using HCVcc (JFH5a-Rluc-ad34 virus) in Huh 7.5.1 cells, Renilla luciferase readout. As to conditions: Hepatitis C virus, GT2A, Huh-7.5.1, 72 h, read-out: HCV wt. GT-2a. As for the experimental part:
<Experimental Example 1> Measurement of Anti-HCV Activity of Compounds of Examples Using HCVcc
Step 1: Cell Line and Cell Culture
Huh 7.5.1 cells were grown in Dulbecco's Modified Eagle's medium (DMEM; Gibco) supplemented with antibiotics (100 U/mL penicillin, 10 μg/mL streptomycin) and 10% heat-inactivated fetal bovine serum (ΔFBS; PEAK) in a CO2 incubator at 37° C. with […].
Huh7.5.1 cells were transfected with in vitro transcription RNA of JFH5a-Rluc-ad34, a derivative of JFH1 with adaptive mutations in E2 and p7 regions, by electroporation. JFH5a-Rluc-ad34 virus contains Renilla luciferase (Rluc), which is convenient for virus proliferation assay. The cell culture medium containing HCV was collected 3-5 days after the electroporation and then filtered through a […] pore size filter.
Step 3: Antiviral Activity Test Using Infectious HCV Particles
Huh 7.5.1 cells were inoculated with JFH5a-Rluc-ad34 virus and incubated for 4 hours. Four hours after the virus inoculation, the Huh7.5.1 cells infected with HCV were cultured in the medium containing the compound of examples serially diluted. Three days later, the cells were harvested and the intracellular luciferase activity was measured using Renilla luciferase assay system (Promega). Finally, the luciferase activity was normalized with those obtained from the negative control cells (mock-treated cells).

Assay [2] has as its system HCV replicon NK5.1-Gluc (genotype 1b). The assay can be described thus: Anti-HCV activity using HCV replicon NK5.1-Gluc (genotype 1b) in Huh 7.5.1 cells, luciferase readout. Particulars: Hepatitis C virus, 72 h; Huh 7.5.1 cells with NK5.1-Gluc replicon, 3 days, Gaussia luciferase; read-out: HCV wt. GT-1b.
Assay [3] deals with HCV genotype 1b replicon with NS5A Y93H mutation. Kind of assay: Transiently transfected assay of genotype 1b resistance mutant RNA Y93H. As to conditions: Hepatitis C virus, Huh-7.5.1, 72 h, read-out: HCV Mutation Y93H. The source says: (§1) <Experimental Example 3> Transiently Transfected Assay of Genotype 1b Resistance Mutant RNAs
(§2) Replicon genomes substituted with Y93H, L31V and L31V+Y93H (double mutant), the resistance mutants to Daclatasvir with mutations at the NS5A protein domain 1.
(§3) These HCV resistance mutant genomes were linearized with scal restriction enzyme, and then the mutated HCV RNA was synthesized through in vitro transcription. Huh 7.5.1 cells were individually electroporated with HCV RNA with resistant mutations and plated in a 12 well plate. After 4 hours, Huh7.5.1 cells were seeded in DMEM containing the compounds of examples serially diluted for 3 days. Three days later, the cells were harvested and the intracellular luciferase activity was measured. The luciferase activity was normalized with those obtained from the negative control cells (mock-treated cells).

Assay [4] deals with HCV genotype 1b replicon with NS5A L31V mutation. Kind of assay: Transiently transfected assay of genotype 1b resistance mutant RNA L31V. Particulars: Hepatitis C virus, Huh-7.5.1, 72 h, read-out: HCV Mutation L31V.
Source text: as §1, §2, §3

Assay [5] concerns HCV genotype 1b replicon with NS5A L31V+Y93H (double mutant). Kind of assay: Transiently transfected assay of genotype 1b resistance mutant RNA L31V+Y93H (double mutant). Particulars: Hepatitis C virus, Huh-7.5.1, 72 h, read-out: HCV Mutation L31V + Y93H.
Source text: as §1, §2, §3

Assay [6] concerns HCV replicon S52-Feo (genotype 3a). The assay can be described thus: Anti-HCV activity using HCV replicon S52-Feo (genotype 3a) in Huh 7.5.1 cells, luciferase readout. Particulars: Hepatitis C virus, 72 h; Huh 7.5.1 cells with S52-Feo replicon, 3 days, firefly luciferase; read-out: HCV wt. GT-3a.

For `CCCCC1(CCCC)c2cc(NC(=O)[C@@H]3CCCN3C(=O)[C@H](NC(=O)OC)c3ccccc3)ccc2-c2ccc(-c3cnc([C@@H]4CCCN4C(=O)[C@@H](NC(=O)OC)C(C)C)[nH]3)cc21` [Example 9, methyl ((S)-1-((S)-2-(5-(9,9-dibutyl-7-((S)-1-((R)-2-((methoxycarbonyl)amino)-2-phenylacetyl)pyrrolidine-2-carboxyamido)-9H-fluorene-2-yl)-1H-imidazole-2-yl)pyrrolidine-1-yl)-3-methyl-1-oxobutane-2-yl)carbamate], the EC50 was 0.01 to 0.1 nM in assay [1]; 0.001 to 0.01 nM in assay [2]; 0.01 to 0.1 nM in assay [3]; 0.01 to 0.1 nM in assay [4]; 0.1 to 1 nM in assay [5]; 0.01 to 0.1 nM in assay [6].

With `CCCCC1(CCCC)c2cc(NC(=O)[C@@H]3CCCN3C(=O)[C@H](NC(=O)OC)c3ccccc3)ccc2-c2ccc(NC(=O)[C@@H]3CC(=O)CN3C(=O)[C@H](NC(=O)OC)c3ccccc3)cc21` [Example 10, methyl ((R)-2-((S)-2-((9,9-dibutyl-7-((S)-1-((R)-2-((methoxycarbonyl)amino)-2-phenylacetyl)pyrrolidine-2-carboxyamido)-9H-fluorene-2-yl)carbamoyl)-4-oxopyrrolidine-1-yl)-2-oxo-1-phenylethyl)carbamate], the EC50 in assay [1] was in the range of 0.1 to 1 nM; in assay [2], 0.001 to 0.01 nM; in assay [3], 0.1 to 1 nM; in assay [4], 0.001 to 0.01 nM; in assay [5], 1 to 100 nM; in assay [6], 0.01 to 0.1 nM.

With `CCCCCC1(CCCCC)c2cc(NC(=O)[C@@H]3CCCN3C(=O)[C@H](NC(=O)OC)c3ccccc3)ccc2-c2ccc(NC(=O)[C@@H]3CCCN3C(=O)[C@H](NC(=O)OC)c3ccccc3)cc21` [Example 11, dimethyl ((1R,1′R)-((2S,2′S)-(((9,9-dipentyl-9H-fluorene-2,7-diyl)bis(azanediyl))bis(carbonyl))bis(pyrrolidine-2,1-diyl))bis(2-oxo-1-phenylethane-2,1-diyl))dicarbamate], the EC50 in assay [1] was in the range of 1 to 100 nM; in assay [2], 0.001 to 0.01 nM; in assay [3], 1 to 100 nM; in assay [4], 0.001 to 0.01 nM; in assay [5], 1 to 100 nM; in assay [6], 0.01 to 0.1 nM.

`CCCCCC1(CCCCC)c2cc(NC(=O)[C@@H]3CCCN3C(=O)[C@H](NC(=O)OC)c3ccccc3)ccc2-c2ccc(NC(=O)[C@@H]3CC4(CN3C(=O)[C@H](NC(=O)OC)c3ccccc3)OCCO4)cc21` [Example 12, methyl ((R)-2-((S)-2-((7-((S)-7-((R)-2-((methoxycarbonyl)amino)-2-phenylacetyl)-1,4-dioxa-7-azaspiro[4.4]nonane-8-carboxamido)-9,9-dipentyl-9H-fluorene-2-yl)carbamoyl)pyrrolidine-1-yl)-2-oxo-1-phenylethyl)carbamate]: the EC50 in assay [1] was in the range of 1 to 100 nM; in assay [2], 0.001 to 0.01 nM; in assay [3], 0.1 to 1 nM; in assay [4], 0.001 to 0.01 nM; in assay [5] it was 1 to 100 nM; in assay [6], 0.01 to 0.1 nM.

Consider `CCCCCC1(CCCCC)c2cc(NC(=O)[C@@H]3CC4(CN3C(=O)[C@H](NC(=O)OC)c3ccccc3)OCCO4)ccc2-c2ccc(NC(=O)[C@@H]3CC4(CN3C(=O)[C@H](NC(=O)OC)c3ccccc3)OCCO4)cc21` [Example 13, dimethyl ((1R,1′R)-((8S,8′S)-(((9,9-dipentyl-9H-fluorene-2,7-diyl)bis(azanediyl))bis(carbonyl))bis(1,4-dioxa-7-azaspiro[4.4]nonane-8,7-diyl))bis(2-oxo-1-phenylethane-2,1-diyl))dicarbamate], for which the EC50 is 1 to 100 nM in assay [1]; 0.001 to 0.01 nM in assay [2]; 0.001 to 0.01 nM in assay [3]; 0.001 to 0.01 nM in assay [4]; 0.01 to 0.1 nM in assay [5]; 0.1 to 1 nM in assay [6].

For the molecule `CCCCC1(CCCC)c2cc(NC(=O)[C@@H]3CC4(CN3C(=O)[C@H](NC(=O)OC)c3ccccc3)OCCO4)ccc2-c2ccc(-c3cnc([C@@H]4CCCN4C(=O)[C@@H](NC(=O)OC)C(C)C)[nH]3)cc21` [Example 14, methyl ((S)-1-((S)-2-(5-(9,9-dibutyl-7-((S)-7-((R)-2-((methoxycarbonyl)amino)-2-phenylacetyl)-1,4-dioxa-7-azaspiro[4.4]nonane-8-carboxyamido)-9H-fluorene-2-yl)-1H-imidazole-2-yl)pyrrolidine-1-yl)-3-methyl-1-oxobutane-2-yl)carbamate], the EC50 in assay [1] is 0.01 to 0.1 nM; in assay [2], 0.001 to 0.01 nM; in assay [3], 0.001 to 0.01 nM; in assay [4], 0.001 to 0.01 nM; in assay [5] it was 1 to 100 nM; in assay [6], 0.01 to 0.1 nM.

Turning to `CCCCC1(CCCC)c2cc(NC(=O)[C@@H]3CC4(CN3C(=O)[C@H](NC(=O)OC)c3ccccc3)OCCO4)ccc2-c2ccc(NC(=O)[C@@H]3CC4(CN3C(=O)[C@H](NC(=O)OC)c3ccccc3)OCCO4)cc21` [Example 15, dimethyl ((1R,1′R)-((8S,8′S)-(((9,9-dibutyl-9H-fluorene-2,7-diyl)bis(azanediyl))bis(carbonyl))bis(1,4-dioxa-7-azaspiro[4.4]nonane-8,7-diyl))bis(2-oxo-1-phenylethane-2,1-diyl))dicarbamate], the EC50 in assay [1] was 1 to 100 nM; in assay [2] it was 0.001 to 0.01 nM; in assay [3] it was 0.01 to 0.1 nM; in assay [4], 0.001 to 0.01 nM; in assay [5], 0.01 to 0.1 nM; in assay [6], 0.1 to 1 nM.

As to `CCCCC1(CCCC)c2cc(NC(=O)[C@@H]3CCCN3C(=O)[C@H](NC(=O)OC)c3ccccc3)ccc2-c2ccc(NC(=O)[C@@H]3CC4(CN3C(=O)[C@H](NC(=O)OC)c3ccccc3)OCCO4)cc21` [Example 16, methyl ((R)-2-((S)-8-((9,9-dibutyl-7-((S)-1-((R)-2-((methoxycarbonyl)amino)-2-phenylacetyl)pyrrolidine-2-carboxyamido)-9H-fluorene-2-yl)carbamoyl)-1,4-dioxa-7-azaspiro[4.4]nonane-7-yl)-2-oxo-1-phenylethyl)carbamate], the EC50 is 1 to 100 nM in assay [1]; 0.001 to 0.01 nM in assay [2]; 0.01 to 0.1 nM in assay [3]; 0.001 to 0.01 nM in assay [4]; 1 to 100 nM in assay [5]; 0.01 to 0.1 nM in assay [6].

Consider `CCCCCC1(CCCCC)c2cc(NC(=O)[C@@H]3CC(=O)CN3C(=O)[C@H](NC(=O)OC)c3ccccc3)ccc2-c2ccc(NC(=O)[C@@H]3CC(=O)CN3C(=O)[C@H](NC(=O)OC)c3ccccc3)cc21` [Example 17, dimethyl ((1R,1′R)-((5S,5′S)-(((9,9-dipentyl-9H-fluorene-2,7-diyl)bis(azanediyl))bis(carbonyl))bis(3-oxopyrrolidine-5,1-diyl))bis(2-oxo-1-phenylethane-2,1-diyl))dicarbamate], for which the EC50 in assay [1] lay within 1 to 100 nM; in assay [2], 0.001 to 0.01 nM; in assay [3], 0.1 to 1 nM; in assay [4] it was 0.001 to 0.01 nM; in assay [5] it was 1 to 100 nM; in assay [6], 0.01 to 0.1 nM.

In the case of `CCCCCC1(CCCCC)c2cc(NC(=O)[C@@H]3CC(=O)CN3C(=O)[C@H](NC(=O)OC)c3ccccc3)ccc2-c2ccc(NC(=O)[C@@H]3CC4(CN3C(=O)[C@H](NC(=O)OC)c3ccccc3)OCCO4)cc21` [Example 18, methyl ((R)-2-((S)-8-((7-((S)-1-((R)-2-((methoxycarbonyl)amino)-2-phenylacetyl)-4-oxopyrrolidine-2-carboxyamido)-9,9-dipentyl-9H-fluorene-2-yl)carbamoyl)-1,4-dioxa-7-azaspiro[4.4]nonane-7-yl)-2-oxo-1-phenylethyl)carbamate], the EC50 lay in the range of 1 to 100 nM in assay [1]; 0.01 to 0.1 nM in assay [2]; 0.1 to 1 nM in assay [3]; 0.01 to 0.1 nM in assay [4]; 1 to 100 nM in assay [5]; 0.1 to 1 nM in assay [6].
